The text below walks through data of patent US10968196B2, “Substituted β-lapachones for treating cancer” (University of Pittsburgh—Of the Commonwealth System of …, priority 2015, dated 2021).

For one assay, the system named is 983B melanoma cells. As to the kind of experiment: CellTiter-Blue cell viability assay, 24 h treatment. The class given is cell-based. Particulars: 983B cells, indicated concentrations, 24 h (FIG. 3B). How it is done: (§1) (3A) A549 non-small cell lung cancer cells were treated with XJB-OMe, 3-hydroxy-β-lapachone (14), or XJB-lapachone (18) at indicated concentrations for 24 h. Cell viability was determined by a CellTiter-Blue assay. Data represents the mean±SEM. (3B) PEO1 ovarian cancer cells, MDA-MB-231 breast cancer cells, and 983B melanoma cells were treated with XJB-lapachone (18) at indicated concentrations for 24 h. Cell viability was determined by a CellTiter-Blue assay. Data represents the mean±SEM. (3C) Equal numbers of A549 and IMR90 lung fibroblast cells were treated with 10 μM XJB-lapachone (18) for 4 h. XJB-lapachone was then washed away and cells were incubated in drug free media for 3 days. Cell viability was determined by a CellTiter-Blue assay. (3D) A549 cells were treated with XJB-OMe, 3-hydroxy-β-lapachone (14), or XJB-lapachone (18) at 6 μM concentrations for 20 h. The formation of vacuoles was examined by phase contrast microscopy. Representative images are shown. (3E) A549 cells were treated as described above. Apoptotic and necrotic cell death were determined by Annexin V and PI staining. Representative images are shown.
(§2) Cell culture: A549 non-small cell lung cancer cells and MDA-MB-231 breast carcinoma cells were obtained from American Type Culture Collection (ATCC). Ovarian cancer cells PEO1 were kindly provided by Dr. Karyn J. Hansen (Magee-Womens Hospital of UPMC). 983B melanoma cells were kindly provided by Dr. Stergios J. Moschos (University of North Carolina). IMR90 normal lung fibroblast cells were kindly provided by Dr. Christopher Bakkenist (University of Pittsburgh Cancer Institute). Cells were cultured in either RPMI 1640 or DMEM media supplemented with 10% heat-inactivated fetal calf serum and 1% penicillin-streptomycin in 5% CO2 at 37° C.
(§3) Cell viability and apoptosis assays: Cell viability was determined using a CellTiter-Blue Cell Viability Assay (Promega, Madison, Wis.). The survival fractions were calculated after setting untreated control cells at 100%. An FITC Annexin V Apoptosis Detection Kit (BD PharMingen, San Diego, Calif.) was used to quantify apoptotic cells and necrotic cells, according to the manufacturer's instructions.
(§4) In order to investigate the cellular toxicity of 18 (XJB-lapachone), A549 nonsmall cell lung cancer cells were treated with various concentrations of XJB-lapachone for 24 h, and compared its effect with XJB-OMe (the mitochondrial targeting moiety) and unconjugated 3-hydroxy-β-lapachone (14). […] Furthermore, XJB-lapachone is also effective against other types of tumor cells, including PEO1 ovarian cancer cells, MDA-MB-231 breast cancer cells, and 983B melanoma cells (FIG. 3B). […] Tumor selectivity of β-lapachone, and whether the same is maintained after XJB conjugation, was examined. The cytotoxic effect of XJB-lapachone on A549 lung cancer and non-transformed human lung fibroblast cells IMR90 was determined by a cell growth/death assay.

In assay [1] the test system is PEO1 ovarian cancer cells. The description is as above. The class given is cell-based. The note with it: indicated concentrations, 24 h (FIG. 3B). How it is done: as §1, §2, §3, §4

With `CC(C)C[C@@H](/C=C/[C@H](Cc1ccccc1)C(=O)N1CCC[C@H]1C(=O)N[C@H](C(=O)N[C@@H](CCCNC(=O)OCc1ccccc1)C(=O)NCCC(=O)OC1CC2=C(OC1(C)C)c1ccccc1C(=O)C2=O)C(C)C)NC(=O)OC(C)(C)C` (stereo partly drawn) [XJB-lapachone, 2,2-Dimethyl-5,6-dioxo-3,4,5,6-tetrahydro-2H-benzo[h]chromen-3-yl 3-((S)-2-((S)-2-((S)-1-((2S,5S,E)-2-benzyl-5-((tert-butoxycarbonyl)amino)-7-methyloct-3-enoyl)pyrrolidine-2-carboxamido)-3-methylbutanamido)-5-(((benzyloxy)carbonyl)amino)pentanamido) propanoate], the cell viability result (in the assay on 983B melanoma cells; in assay [1]) was “effective” throughout.
